Reference: patent US8110689B2, “Benzanilides with insecticidal activity” (Bayer Cropsciene AG, priority 2006, dated 2012)

Tested on: not given
Conditions: not given
Molecule CSC[C@H](C)NC(=O)c1c(Cl)cccc1C(=O)Nc1ccc(Cc2cc(C(F)(F)F)cc(C(F)(F)F)c2)nc1C has a melting point of 73 to 79 °C. With CSC[C@H](C)NC(=O)c1c(Cl)cccc1C(=O)Nc1ccc(Cc2cc(C(F)(F)F)cc(C(F)(F)F)c2)cc1C the melting point was 57 to 62 °C. Work on Cc1cc(Cc2cc(C(F)(F)F)cc(C(F)(F)F)c2)ccc1NC(=O)c1cccc(Cl)c1C(=O)N[C@@H](C)CS(C)(=O)=O yielded a melting point of 155 to 158 °C. Work on CSC[C@H](C)NC(=O)c1c(C)cccc1C(=O)Nc1ccc(Cc2cc(C(F)(F)F)cc(C(F)(F)F)c2)cc1C yielded a melting point of 85 to 94 °C. For Cc1cc(Cc2cc(C(F)(F)F)cc(C(F)(F)F)c2)ccc1NC(=O)c1cccc(Cl)c1C(=O)N[C@@H](C)C[S+](C)[O-] (stereo partly shown), the melting point was 162 to 165 °C.

Tested on: organophosphorous- and carbamate-resistant Myzus persicae
Conditions: 100 ppm; 7 days after application; 28° C. greenhouse
CSC[C@H](C)NC(=O)c1c(Cl)cccc1C(=O)Nc1ccc(Cc2cc(Br)cc(Br)c2)cc1C [compound 152] showed an insect mortality of 100%. With CSC[C@H](C)NC(=O)c1c(Cl)cccc1C(=O)Nc1ccc(Cc2cc(C(F)(F)F)cc(C(F)(F)F)c2)cc1C [Compound No. 19] the insect mortality was 100%.
